We go through five compounds from patent publication US8314127B2, “Piperidine derivatives” (Astrazeneca AB, priority 2005, dated 2012).

For one test, the target named is T1, human H1 receptor (Homo sapiens, UniProt P35367).
T1 construct: purchased Euroscreen SA, Brussels, Belgium ES-390-M; host or cells: CHO-K1
Kind of test: Histamine H1 receptor binding, competition displacement of [3H]-pyrilamine. The note with it: 1 nM [3H]-pyrilamine, membranes from recombinant CHO-K1 cells, 1 hour at room temperature; read-out: H1 pKi (converted).

Test [1] concerns the target T2, CCR3 (Homo sapiens, UniProt P51677).
T2 sequence (P51677 1-355): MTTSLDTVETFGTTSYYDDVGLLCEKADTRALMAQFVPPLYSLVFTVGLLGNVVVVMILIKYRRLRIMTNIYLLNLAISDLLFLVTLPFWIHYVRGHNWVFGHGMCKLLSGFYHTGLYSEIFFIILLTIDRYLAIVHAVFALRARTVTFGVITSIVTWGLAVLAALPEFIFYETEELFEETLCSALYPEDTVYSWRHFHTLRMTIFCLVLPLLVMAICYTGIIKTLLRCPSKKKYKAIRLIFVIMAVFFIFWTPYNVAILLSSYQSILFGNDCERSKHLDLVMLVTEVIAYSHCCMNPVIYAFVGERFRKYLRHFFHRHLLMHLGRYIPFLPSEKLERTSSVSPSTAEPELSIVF
Kind of test: Eotaxin-2-induced shape change in eosinophils in human blood in vitro. In kind it is cell-based. On the set-up: Human blood, collected by venous puncture into 9 mL lithium-heparin tubes; endogenous in cells; host or cells: eosinophils in human whole blood. Particulars: eotaxin-2 E/[A] curve displacement, 4 min at 37° C., flow cytometry forward scatter, read-out: CCR3 pA2 (converted). In general terms: A flow cytometer gives signals particle by particle.

Test [2] concerns the target T2, CCR3. Kind of test: Compound affinity at human recombinant CCR3 receptors, radioligand competition on CHO-K1 cell membranes. In kind it is binding. More on the design: expressed in transfected cells; host or cells: CHO-K1. The note with it: 2 nM [3H]-4-(2,4-dichloro-3-methylphenoxy)-1'-[4-(methylsulfonyl)benzoyl]-1,4'-bipiperidine, 2 h at 37° C., mean of minimum 2 experiments; for Ki: read-out: CCR3 pKi (converted). In general terms: In a radioligand displacement assay an active substance lowers the binding of a labelled ligand.

T1 sequence (P35367 whole entry): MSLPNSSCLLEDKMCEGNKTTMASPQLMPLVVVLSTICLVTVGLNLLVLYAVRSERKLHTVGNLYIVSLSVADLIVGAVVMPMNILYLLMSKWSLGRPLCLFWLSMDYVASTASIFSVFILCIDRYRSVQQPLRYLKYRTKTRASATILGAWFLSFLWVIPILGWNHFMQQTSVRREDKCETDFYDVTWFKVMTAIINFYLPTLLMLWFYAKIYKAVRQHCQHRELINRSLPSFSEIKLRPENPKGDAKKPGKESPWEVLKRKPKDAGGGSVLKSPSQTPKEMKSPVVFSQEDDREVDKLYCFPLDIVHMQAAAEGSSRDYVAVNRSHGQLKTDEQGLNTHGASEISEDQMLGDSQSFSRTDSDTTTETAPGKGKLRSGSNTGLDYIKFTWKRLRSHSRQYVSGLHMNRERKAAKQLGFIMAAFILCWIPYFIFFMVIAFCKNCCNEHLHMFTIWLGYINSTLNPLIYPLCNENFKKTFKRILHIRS

With `Cc1c(OC2CCN(CC3CCN([C@@H](Cc4ccc(C#N)cc4)C(=O)O)CC3)CC2)ccc(Cl)c1Cl` [Example 3, (2S)-3-(4-cyanophenyl)-2-[4-[[4-(3,4-dichloro-2-methyl-phenoxy)-1-piperidyl]methyl]-1-piperidyl]-propanoic acid], the Ki at human H1 receptor was 31.6 nM; at CCR3 [2], 0.501 nM. The Kb at CCR3 [1] is 20 nM.
In the case of `CCc1c(OC2CCN(CC3CCN([C@@H](Cc4ccc(F)cc4)C(=O)O)CC3)CC2)ccc(Cl)c1Cl` [Example 14, (2S)-2-[4-[[4-(3,4-dichloro-2-ethyl-phenoxy)-1-piperidyl]methyl]-1-piperidyl]-3-(4-fluorophenyl)-propanoic acid], the Kb at CCR3 [1] was 200 nM. The Ki on CCR3 [2] is 0.501 nM.
In the case of `Cc1c(OC2CCN(CC3CCN([C@@H](Cc4ccccc4)C(=O)O)CC3)CC2)ccc(C#N)c1Cl` [Example 15, (22S)-2-(4-{[4-(3-chloro-4-cyano-2-methylphenoxy)-piperidin-1-yl]methyl}piperidin-1-yl)-3-phenylpropanoic acid], the “CCR3 pKi” value at CCR3 [2] amounted to 8.2.
With `CCc1c(OC2CCN(CC3CCN([C@@H](Cc4ccccc4)C(=O)O)CC3)CC2)ccc(Cl)c1Cl` [Example 13, (2S)-2-[4-[[4-(3,4-dichloro-2-ethyl-phenoxy)-1-piperidyl]methyl]-1-piperidyl]-3-phenylpropanoic acid], the Ki is 100 nM on human H1 receptor and 1.26 nM on CCR3 [2]. For the same compound, the Kb at CCR3 [1] was 200 nM.
`COc1ccccc1C[C@@H](C(=O)O)N1CCC(CN2CCC(Oc3ccc(Cl)c(Cl)c3C)CC2)CC1` [Example 2, (2S)-2-[4-[[4-(3,4-dichloro-2-methyl-phenoxy)-1-piperidyl]methyl]-1-piperidyl]-3-(2-methoxyphenyl)-propanoic acid]: at CCR3 [1], the Kb is 20 nM. Also, the Ki at CCR3 [2] is 0.631 nM.
